Measurements published in patent US20010005752A1, “Fluorescent dyes (AIDA) for solid phase and solution phase screening” (priority 1998, published 2001).

Tests used:
[1] = UV-Vis absorption spectroscopy; format: physicochemical; details: acetonitrile/2% DMSO
Experimental: UV-Vis absorption spectroscopy is performed on a Cary 1E spectrophotometer. […]
[…] […] From each stock solution, 5 dilutions with concentrations of 2.5 μm, 10 μM, 17 μM, 25 μm and 35 μM are made. UV-spectra of each dilution are recorded from 200 to 400 nm, using a quarz cuvette with a pathlength of 1 cm. […] A linear fit is carried out for each series of measurements. The extinction coefficient ε at 337 nm is given by the slope of the linear regression.

[2] = Steady-state fluorescence spectroscopy (excitation and emission spectra); format: physicochemical; details: for Emission range in parenthesis / Emission λmax / Excitation range in parenthesis / Excitation λmax: acetonitrile/2% DMSO
Experimental: Steady-state fluorescence measurements are performed on a SLM 8000C spectro-fluorometer equipped with JD490 photomultipliers and a 450 W Xenon Arclamp (SLM Instruments, Urbana, Ill.).
[…] Spectral bandwidths are set to 1 and 4 nm for excitation and emission, respectively. Spectra are recorded in single photon counting mode. Changes in lamp intensity are corrected with a quantum counter in the reference channel, measured in slow mode. Gain is set to x 100 with a high voltage (HV) of 640 V. Integration time is 2 seconds. For excitation spectra measurements, the emission wavelength is set to 397 nm and the sample is excited from 200 to 400 nm. For recording emission spectra, the sample is excited at 342 nm and the emission is recorded from 350 to 540 nm. The data are averaged over two scans.

avidin [3] = target: T1, avidin (Gallus gallus, UniProt P02701); test: Fluorescence anisotropy as signal for binding to avidin
T1 construct: purchased Molecular Probes (Eugene, Oreg.) A-2767
Experimental: (§1) For solubility reasons, 4e is spectroscopically characterized in THF. All complexation reactions and fluorescence resonance energy transfer measurements are performed in PBS/5% DMSO at 25° C., unless indicated otherwise.
(§2) Fluorescence anisotropy is calculated according to [Lakowicz, 1983].
(§3) Spectral bandwidths are set to 4 and 8 nm for excitation and emission, respectively, with 5 seconds integration time. For calculation of fluorescence anisotropy ten data points are averaged.
(§4) This value is indicative for a small monomeric molecule rotating free in solution. […] When 1 μM of the BODIPY-FL labelled avidin was used as substrate the r-value was 0.100. This reduced change in anisotropy probably reflects the lower affinity of the BODIPY-FL labelled avidin as compared to the unlabelled material.

[4] = target: T2, BODIPY-FL labelled avidin (Gallus gallus, UniProt P02701); test: Fluorescence anisotropy with BODIPY-FL labelled avidin; format: binding; details: 50 nM conjugate, 1 μM BODIPY-FL labelled avidin
T2 construct: BODIPY FL (chemical fluorescent label, about 3.3 per avidin); purchased Molecular Probes (Eugene, Oreg.) A-2641
Experimental: as §1, §2, §3, §4

avidin [5] = target: T1, avidin; test: FRET / quenching with unlabelled avidin (tryptophan donor, AIDA acceptor); format: binding
Experimental: as §1
(§5) Spectral bandwidths are set to 8 and 16 nm for excitation and emission, respectively. Measurements are performed at 25° C. in a 750 μL quartz cuvette (10 mm optical pathlength) without stirring after initial mixing. A concentration of 50 nM of 9 or 11 is used for complexation with 1 μM of (fluorescent) avidin. […] All titrations are performed in magic angle setting, with the emission wavelength set to […] in experiments where the indazole is the acceptor, and with an excitation spectrum recorded from 250 nm to 360 nm. In experiments where indazole is used as donor and Lucifer Yellow or BODIPY FL is the acceptor, the excitation wavelength is set to 338 nm or 325 nm. The fluorescence emission is collected between 360 nm and 700 nm. The spectra are corrected for Raman scattering from the PBS solution, for dilution, and for inner filter effects due to protein additions, The signal is adjusted for lamp intensity changes by ratio mode detection with a Rhodamine B quantum counter in the reference channel. A WG 360 emission cutoff filter is used for straylight reduction. Data are collected in 2 nm increments with 1 second integration time.
An emission wavelength at 480 nm was chosen because the tryptophan fluorescence of avidin had almost reached the baseline level at this emission energy, resulting in only minor avidin fluorescence contribution between 250 and 370 nm. […] This quenching effect can be attributed to all radiative and non-radiative processes occurring to 11 in the vicinity of the tryptophans in the binding cleft. Corresponding to the ratio of the negative and positive areas under the fluorescence difference curve (black), 62% of this total quenching effect is fluorescence resonance energy transfer. From 250 to 305 nm the enhancement of the tryptophan and tyrosine fluorescence intensity is 72% based on the sum of 11 and avidin.

avidin-BODIPY-FL = target: T3, avidin-BODIPY-FL (Gallus gallus, UniProt P02701); test: FRET / quenching with avidin-BODIPY-FL (AIDA donor, BODIPY-FL acceptor); format: binding
T3 construct: BODIPY FL (chemical fluorescent label, about 3.3 per avidin); purchased Molecular Probes (Eugene, Oreg.) A-2641
Experimental: as §1, §5
In these experiments 11 was used as donor and BODIPY-FL as acceptor. At an excitation wavelength of 338 nm the emission of 11 between 360 nm and 516 nm is strongly quenched by approximately 80% in the complexed form. The standard definition for energy transfer efficiency, E=1−Fda/Fd, would result in E≅0.8. […] The approximately 80% reduction in signal intensity of 11 can be caused either by FRET or from local quenching of the fluorescence of 11 mainly by ground state interactions. […] Due to the broad fluorescence emission of 11 in water the detection wavelength can be shifted up to 500 nm which is at lower energy than most background fluorescence signals from small chemical compounds.

avidin [6] = target: T1, avidin; test: Time-resolved fluorescence depolarisation on binding of avidin; details: PBS/5% DMSO
Experimental: Picosecond time-resolved fluorescence measurements are recorded according to the single photon counting technique [Lakowicz, 1983 p 52-93, 112-153, 156-185]. An Ar^+-pumped Ti:Sapphire laser (model MIRA 900, Coherent, Santa Clara, USA) provided under mode-locked conditions ultrashort pulses (FWHM=150 fs) with a frequency of 75 MHz. To reduce the repetition rate to 4.7 MHz, a pulse picker (model 9200, Coherent, Santa Clara, USA) is inserted into the beam. […] Fluorescence photons are collected in a Spex 1681 single grating monochromator (Spex, Edison, USA) and detected with the Hamamatsu R3809U microchannel plate (Hamamatsu, Shimokanzo, Japan). […] The voltage values which correspond to the time passed between excitation and emission of a fluorescence photon in a single experiment are stored in the Spectrum Master 921 (Ortec, Oak Ridge, USA) which is connected to the multichannel emulation program Maestro (Ortec, Oak Ridge, USA). […]
c. Binding of AIDA conjugate 8 to avidin-BODIPY detected by rotational diffusion and energy transfer: Energy transfer between the indazole moiety in 8 and the 3.3 BODIPY-FL lables on avidin by time-resolved fluorescence spectroscopy.
Binding of avidin labelled with BODIPY-FL to 8 creates a further depolarisation mode for the indazole fluorescence: Fluorescence resonance energy transfer between the indazole moiety of 8 and the BODIPY-FL labels. […]

[7] = in acetonitrile; cited from earlier work
[8] = in acetonitrile; cited from earlier work; remark: listed apart in the source
[9] = unlabelled avidin, conjugate as acceptor

T3 sequence (P02701 25-152): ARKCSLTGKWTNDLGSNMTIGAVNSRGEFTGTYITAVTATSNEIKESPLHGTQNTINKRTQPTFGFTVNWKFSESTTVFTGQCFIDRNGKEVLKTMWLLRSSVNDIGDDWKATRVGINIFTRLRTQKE
T1 sequence (P02701 25-152): as above
T2 sequence (P02701 25-152): as above

## C=CCOC(=O)c1ccc(-c2nn(-c3ccc(C(=O)N[C@@H](CCCCNC(=O)CCCCC4SCC5NC(=O)NC54)C(=O)O)cc3)c3ccccc23)cc1 (stereo partly drawn) [compound 11]
[1]
  Absorption λmax: 334 nm
  ε (at absorption λmax): 34349 M⁻¹ cm⁻¹
[2]; 50 nM, PBS/5% DMSO, excitation 338 nm
  emission maximum: 438 nm
[2]; PBS buffer, 500 nm
  emission intensity at 500 nm: about 50%
[2]
  Emission range in parenthesis: 370-480 nm
  Emission λmax: 397 nm
  Excitation range in parenthesis: 310-360 nm
  Excitation λmax: 336 nm
Avidin [3]; 50 nM conjugate, 1 μM avidin
  change of anisotropy on binding to avidin: +444%
  fluorescence anisotropy bound to avidin: 0.151
Avidin [3]; 50 nM, excitation 338 nm, emission 438 nm, no avidin
  basic fluorescence anisotropy (free conjugate): 0.034
[4]
  fluorescence anisotropy (r-value) with BODIPY-FL labelled avidin: 0.100
Avidin [5]; 50 nM conjugate, 1 μM unlabelled avidin, emission 480 nm
  quenching of conjugate fluorescence by complexation in the avidin binding site: about 25.5%
Avidin [5]; 250 to 305 nm, based on the sum of 11 and avidin
  enhancement of tryptophan and tyrosine fluorescence intensity: 72%
Avidin [5]; detected at 480 nm
  tryptophan to conjugate energy transfer relative to free avidin plus 11: 70%
Avidin [5]; ratio of negative and positive areas under difference curve
  part of total quenching effect that is fluorescence resonance energy transfer: 62%
avidin-BODIPY-FL; standard definition, stated as not valid here
  energy transfer efficiency E=1−Fda/Fd: ~0.8

## NC(=O)c1ccc(-n2nc(-c3ccc(C(=O)NCCCNC(=O)CCCCC4SCC5NC(=O)NC54)cc3)c3ccccc32)cc1 (stereo not drawn) [compound 8, 3′(+)-4-{3-[4-(3′-Biotinoylaminopropyl)-aminocarbonyl]phenyl-1H-indazol-1-yl}-benzoic acid Amide]
[1]
  Absorption λmax: 331 nm
  ε (at absorption λmax): 32158 M⁻¹ cm⁻¹
[2]
  Emission range in parenthesis: 360-480 nm
  Emission λmax: 394 nm
  Excitation range in parenthesis: 310-360 nm
  Excitation λmax: 332 nm
Avidin [5]; [9]
  enhanced energy transfer (tryptophan/indazole): 120%
  increase in indazole fluorescence emission on avidin complexation: 26%
avidin-BODIPY-FL; 50 nM conjugate, 1 μM avidin-BODIPY-FL, excitation 338 nm, emission 360-516 nm
  quenching of indazole (donor) emission in complex with avidin-BODIPY-FL: 93.5%
avidin-BODIPY-FL; avidin-BODIPY complex
  fluoresence energy transfer (acceptor sensitization): 48%
Avidin [6]
  fluorescence depolarisation on binding of avidin (unlabelled): slower depolarisation

## c1ccc2[nH]ncc2c1 [1H-indazole]
[7]
  maximum of absorption: 294 nm
[8]
  maximum of fluorescence emission: 298 nm
